The text below walks through data of US20110092517A1, “Use of PPAR Delta Ligands for the Treatment or Prevention of Inflammation or Energy Metabolism/Production Related Diseases” (Cerenis Therapeutics S.A. & Nippon Chemiphar Co., Ltd., priority 2009, published 2011).

Data set [1] deals with T1, human PPARα (Homo sapiens, UniProt Q07869).
T1 construct: human PPARα (amino acids 167-468); expressed in transfected cells; host or cells: CV-1
T1 sequence (Q07869 167-468): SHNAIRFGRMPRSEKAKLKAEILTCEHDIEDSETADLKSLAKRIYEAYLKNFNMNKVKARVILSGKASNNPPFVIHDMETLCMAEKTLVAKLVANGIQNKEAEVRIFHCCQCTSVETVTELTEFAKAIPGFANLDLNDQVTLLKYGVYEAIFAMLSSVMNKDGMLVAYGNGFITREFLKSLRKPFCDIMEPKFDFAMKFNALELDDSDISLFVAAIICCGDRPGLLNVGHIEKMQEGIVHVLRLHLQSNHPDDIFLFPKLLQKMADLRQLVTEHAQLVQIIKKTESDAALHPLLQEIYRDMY
Briefly: GAL4-PPAR chimera receptor transactivation assay in CV-1 cells (Example 3). Particulars: GAL4 DBD-hPPARα LBD chimera, read-out: Transactivation activity GAL 4 DBD-hPPAR LBD (EC50-Um) alpha. The format is cell-based. The procedure: (§1) MH100×4-tk-luc (2) was used as the reporter plasmid.
(§2) The luciferase and βGAL activity were measured according to the methods of Umesono, K. et al. (4) with slight modifications. A substrate reagent kit (Picagene, Toyo Ink) was used for the luciferase assay. Assays were performed in duplicate and triplicate for GAL4-chimeras and full-length receptors, respectively. Experiments were repeated at least four times.

For the next data set, the target named is T2, human PPARγ1 (Homo sapiens, UniProt P37231).
T2 construct: PPARγ1 (amino acids 176-477); expressed in transfected cells; host or cells: CV-1
T2 sequence (P37231 176-477 isoform P37231-2): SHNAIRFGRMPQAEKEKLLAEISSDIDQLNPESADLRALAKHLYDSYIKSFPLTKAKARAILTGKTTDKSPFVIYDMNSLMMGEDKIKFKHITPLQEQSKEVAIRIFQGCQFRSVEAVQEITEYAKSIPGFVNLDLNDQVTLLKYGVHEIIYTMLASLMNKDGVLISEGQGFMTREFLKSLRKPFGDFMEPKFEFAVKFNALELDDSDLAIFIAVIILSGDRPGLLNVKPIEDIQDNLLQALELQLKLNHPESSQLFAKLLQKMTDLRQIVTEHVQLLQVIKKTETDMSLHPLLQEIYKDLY
The description is as above. The format is cell-based. Particulars: GAL4 DBD-hPPARγ LBD chimera, read-out: Transactivation activity GAL 4 DBD-hPPAR LBD (EC50-Um) gamma. The procedure:
as §1, §2

The target in data set [2] is T3, human PPARδ (Homo sapiens, UniProt Q03181).
T3 construct: PPARδ (amino acids 139-441); expressed in transfected cells; host or cells: CV-1
T3 sequence (Q03181 139-441): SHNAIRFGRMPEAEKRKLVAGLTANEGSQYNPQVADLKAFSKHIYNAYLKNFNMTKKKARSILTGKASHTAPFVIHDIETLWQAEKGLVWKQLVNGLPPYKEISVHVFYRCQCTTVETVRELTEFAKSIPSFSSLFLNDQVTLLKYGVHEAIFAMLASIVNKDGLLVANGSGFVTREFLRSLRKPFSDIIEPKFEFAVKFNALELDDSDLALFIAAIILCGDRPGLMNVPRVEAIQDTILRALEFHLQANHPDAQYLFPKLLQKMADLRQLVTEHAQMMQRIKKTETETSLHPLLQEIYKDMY
The description is as above. The settings on record: GAL4 DBD-hPPARδ LBD chimera, read-out: Transactivation activity GAL 4 DBD-hPPAR LBD (EC50-Um) delta. It is filed as cell-based. The procedure: as §1, §2

The target of another data set is T4, human PPARγ (Homo sapiens, UniProt P37231).
T4 construct: expressed in transfected cells; host or cells: CV-1
T4 sequence (P37231 1-505): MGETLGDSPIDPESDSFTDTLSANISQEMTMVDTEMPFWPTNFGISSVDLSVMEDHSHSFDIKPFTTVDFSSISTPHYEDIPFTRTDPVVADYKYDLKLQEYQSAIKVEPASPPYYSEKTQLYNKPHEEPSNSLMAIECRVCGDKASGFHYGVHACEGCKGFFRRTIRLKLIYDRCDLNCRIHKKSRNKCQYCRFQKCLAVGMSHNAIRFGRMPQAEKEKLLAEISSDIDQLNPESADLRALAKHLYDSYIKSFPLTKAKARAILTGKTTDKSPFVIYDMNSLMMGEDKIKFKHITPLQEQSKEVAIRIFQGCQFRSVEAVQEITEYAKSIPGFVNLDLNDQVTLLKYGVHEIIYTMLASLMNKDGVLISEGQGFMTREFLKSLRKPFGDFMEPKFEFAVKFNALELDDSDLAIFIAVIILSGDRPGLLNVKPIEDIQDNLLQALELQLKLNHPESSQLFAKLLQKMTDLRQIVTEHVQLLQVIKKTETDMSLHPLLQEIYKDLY
T4 sequence (P19793 1-462 partner): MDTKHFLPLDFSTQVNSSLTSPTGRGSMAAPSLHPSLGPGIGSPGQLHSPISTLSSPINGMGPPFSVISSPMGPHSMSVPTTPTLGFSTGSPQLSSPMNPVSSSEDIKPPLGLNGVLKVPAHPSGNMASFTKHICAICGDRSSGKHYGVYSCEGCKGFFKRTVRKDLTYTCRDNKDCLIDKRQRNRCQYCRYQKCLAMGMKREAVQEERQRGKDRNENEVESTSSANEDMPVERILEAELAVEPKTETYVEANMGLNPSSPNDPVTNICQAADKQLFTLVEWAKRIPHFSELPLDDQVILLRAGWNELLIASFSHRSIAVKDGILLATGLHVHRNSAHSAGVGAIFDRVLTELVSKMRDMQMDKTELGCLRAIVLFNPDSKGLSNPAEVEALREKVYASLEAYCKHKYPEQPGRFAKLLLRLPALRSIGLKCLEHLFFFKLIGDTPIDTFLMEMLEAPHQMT
Briefly: Full-length receptor transactivation assay (PPREx3-tk-luc, hRXRα) in CV-1 cells. It is filed as cell-based. The settings on record: full-length hPPARγ + RXRalpha, read-out: Transactivation activity FULL-hPPAR + mRXRalpha (EC50-Um) gamma. The protocol: (§3) Receptor expression plasmids: Full-length coding sequences for human PPARα, PPARγ and PPARδ were inserted into the mammalian expression vector pcDNA3.1+ or pCMX. The full-length coding sequence for human RXRα was inserted into pcDNA3.1+.
(§4) Reporter plasmid: PPREx3-tk-luc (3) was used as the reporter plasmid. It contains three copies of rat Acyl-CoA oxidase peroxisome proliferator response element (PPRE) sequence (AGGACA-A-AGGTCA).
as §2

The target in data set [3] is T5, human PPARδ (Homo sapiens, UniProt Q03181).
T5 construct: expressed in transfected cells; host or cells: CV-1
T5 sequence (Q03181 1-441): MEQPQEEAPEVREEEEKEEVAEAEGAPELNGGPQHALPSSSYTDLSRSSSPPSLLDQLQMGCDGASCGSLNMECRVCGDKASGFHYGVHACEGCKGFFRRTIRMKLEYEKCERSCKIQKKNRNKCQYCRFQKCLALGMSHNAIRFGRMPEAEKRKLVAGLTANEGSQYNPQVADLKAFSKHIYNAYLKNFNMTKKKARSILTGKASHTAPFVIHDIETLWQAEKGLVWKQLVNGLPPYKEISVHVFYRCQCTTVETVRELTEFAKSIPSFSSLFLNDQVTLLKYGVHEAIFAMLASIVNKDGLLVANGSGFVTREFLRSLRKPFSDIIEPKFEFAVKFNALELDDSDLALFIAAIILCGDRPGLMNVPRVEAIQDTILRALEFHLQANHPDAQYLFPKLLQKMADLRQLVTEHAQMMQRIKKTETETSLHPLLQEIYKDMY
T5 sequence (P19793 1-462 partner): T4 sequence (P19793 1-462 partner)
The description is as above. It is filed as cell-based. Particulars: full-length hPPARδ + RXRalpha, read-out: Transactivation activity FULL-hPPAR + mRXRalpha (EC50-Um) delta. The protocol:
as §3, §4, §2

Data set [4] deals with T6, human PPARα (Homo sapiens, UniProt Q07869).
T6 construct: expressed in transfected cells; host or cells: CV-1
T6 sequence (Q07869 1-468): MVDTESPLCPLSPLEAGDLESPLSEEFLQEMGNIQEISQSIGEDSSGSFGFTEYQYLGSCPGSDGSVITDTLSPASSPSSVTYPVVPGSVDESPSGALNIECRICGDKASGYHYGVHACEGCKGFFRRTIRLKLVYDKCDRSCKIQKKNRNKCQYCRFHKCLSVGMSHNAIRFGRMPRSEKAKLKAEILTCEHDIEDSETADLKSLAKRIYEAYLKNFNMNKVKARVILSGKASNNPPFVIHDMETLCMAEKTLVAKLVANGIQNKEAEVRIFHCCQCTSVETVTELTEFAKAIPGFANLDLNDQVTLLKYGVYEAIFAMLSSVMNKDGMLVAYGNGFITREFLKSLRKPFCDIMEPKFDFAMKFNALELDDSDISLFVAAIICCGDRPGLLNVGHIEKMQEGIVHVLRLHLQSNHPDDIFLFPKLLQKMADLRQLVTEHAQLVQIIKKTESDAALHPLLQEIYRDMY
T6 sequence (P19793 1-462 partner): T4 sequence (P19793 1-462 partner)
The data set is described as above. The settings on record: full-length hPPARα + RXRalpha, read-out: Transactivation activity FULL-hPPAR + mRXRalpha (EC50-Um) alpha. The format is cell-based. The protocol: as §3, §4, §2

The conditions of data set [5]: toxicological dosages for 10 days, cited from earlier work; for Peroxisome proliferation in muscle and liver: WT mice.

SMILES strings stand for the structures.

With `Cc1cc(C(=O)CCc2nc(-c3ccc(Cl)cc3O)oc2C(C)C)ccc1OCC(=O)O`, the EC50 on human PPARα [1] is greater than 10 µM; on human PPARγ1, greater than 10 µM; on human PPARδ [2], 0.032 µM; at human PPARγ it was 9.8 µM; at human PPARδ [3], 0.058 µM; at human PPARα [4], 3.8 µM.

Consider `Cc1cc2c(CCc3nc(-c4ccc(Cl)cc4Cl)oc3C(C)C)noc2cc1OCC(=O)O`, for which the EC50 on human PPARα [1] was greater than 10 µM; at human PPARγ1, greater than 10 µM; at human PPARδ [2] it was 0.025 µM; at human PPARγ, greater than 10 µM; at human PPARδ [3] it was 0.007 µM; on human PPARα [4], 7.8 µM.

For `Cc1cc(C(=O)/C=C/c2sc(-c3ccc(C(F)(F)F)cc3)nc2C(C)C)ccc1OCC(=O)O`, the EC50 on human PPARα [1] is greater than 10 µM; on human PPARγ1 it was greater than 10 µM; on human PPARδ [2], 0.045 µM; on human PPARγ it was greater than 10 µM; on human PPARδ [3], 0.019 µM; at human PPARα [4] it was greater than 10 µM.

Turning to `Cc1cc(C(=O)CCc2sc(-c3ccc(C(F)(F)F)cc3)nc2C(C)C)ccc1SCC(=O)O`, the values for the EC50 on human PPARα [1], on human PPARγ1 and at human PPARδ [2] were 3.3 µM, 6.7 µM and 0.018 µM, respectively.

Regarding `Cc1cc(C(O)CCc2sc(-c3ccc(C(F)(F)F)cc3)nc2C(C)C)ccc1OCC(=O)O` (stereo not drawn), the EC50 at human PPARα [1] was greater than 10 µM; on human PPARγ1, greater than 10 µM; at human PPARδ [2], greater than 1 µM; on human PPARγ it was greater than 8 µM; at human PPARδ [3], greater than 0.3 µM; on human PPARα [4], greater than 8 µM.

As for `Cc1cc([C@H](O)CCc2sc(-c3ccc(C(F)(F)F)cc3)nc2C(C)C)ccc1OCC(=O)O`, the values for the EC50 on human PPARα [1], at human PPARγ1 and on human PPARδ [2] were greater than 10 µM, greater than 10 µM and greater than 0.7 µM, respectively.

Take `Cc1cc(SCc2sc(-c3ccc(C(F)(F)F)c(F)c3)nc2C)ccc1OCC(=O)O` [GW0742]: the “Peroxisome proliferation in muscle and liver” value in data set [5] is “significant peroxisome proliferation”. In data set [5] (WT vs PPAR-α KO mice), the “Incidence and severity of skeletal myopathy” value was “greater in WT mice”.

On to `Cc1cccc(Nc2cc(Cl)nc(SCC(=O)O)n2)c1C` [WY-14,643], for which the “Peroxisome proliferation in muscle and liver” value in data set [5] is listed as “significant peroxisome proliferation”.

For `Cc1cc(C(=O)CCc2sc(-c3ccc(C(F)(F)F)cc3)nc2C(C)C)ccc1OCC(=O)O` [drawing 63], the EC50 at human PPARα [1] is greater than 10 µM; at human PPARγ1, greater than 8 µM; at human PPARδ [2], 0.018 µM; on human PPARγ, 5.8 µM; at human PPARδ [3] it was 0.0022 µM; on human PPARα [4], 3.2 µM.
